Values of other authors as cited in patent US20070071706A1, “Lipodissolving dermatological topical preparation” (priority 2005, published 2007).

Settings: used as transdermal permeability enhancer / carrier; delivered substance erythromycin; rats

systemic absorption of the substance being transdermally delivered: good systemic absorption
SMILES: CC(O)CO (centres unmarked) [propylene glycol]
local accumulation in the subcutaneous tissue of the substance being transdermally delivered: very negligible and short living subcutaneous accumulation
